From patent publication US8609718B2, “Pharmaceutical composition used in treatment of hyperproliferative skin conditions and malignant melanomas comprising pachastrissamine as active ingredient” (Catholic University Industry Academy Cooperation Foundation, priority 2009, dated 2013)

Key:
ERK and FoxO3a = assay: Immunoprecipitation of ERK, binding between ERK and FoxO3a; assay type: cell-based, human; conditions: HaCaT; 10 μg/ml; 24 hours; anti-ERK immunoprecipitation; FIG. 4F
Experimental: In the same manner, a HaCaT cell line was treated with pachastrissamine, and immunoprecipitation was used to determine the degree of binding between ERK and FoxO3a, and the degree of FoxO3a ubiquitination caused by interaction. In order to carry out immunoprecipitation, the cells were plated on a 100 mm plate, and cultured in a CO2 incubator (37° C., 5%) for 24 hours. After about 12 hours of serum starvation, the cultured cell line was treated with 10 μg/ml of pachastrissamine for 24 hours. The cell line treated with pachastrissamine and another cell line not treated with pachastrissamine were resuspended in the RIPA buffer as described above, and then put on ice for 30 minutes so that the cells could be completely lysed. The lysate was centrifuged at 14000 rpm for 30 minutes, and the supernatant was collected. A BCA protein analysis kit (Pierce, Rockford, Ill.) was used to determine the concentration of each sample, and the samples in the same amount were added with anti-ERK antibody in the same amount, and reacted at 4° C. for 2 hours. Then, each of the samples was added with 10 μl of protein G-agarose (GenDEPOT) and reacted at 4° C. for 10 hours, and then centrifuged at 3000 rpm for 1 minute, washed with RIPA buffer, and centrifuged again. Then, the precipitated protein G-agarose was collected, and electrophoresis was carried out.

B16F10 cell line = assay: Cell counting by hemocytometer, trypan blue exclusion, B16F10; assay type: cell-based; conditions: 24 hours
Experimental: A HaCaT cell line was cultured in the same manner as described in Example 1. The cultured HaCaT cell line was plated onto a 60 mm plate at a concentration of 5×10^4 cells/well, and cultured in a CO2 incubator (37° C., 5%) for 24 hours. The cultured cells in respective plates were treated with pachastrissamine at a concentration of 10 μg/ml, and cultured in a CO2 incubator (37° C., 5%) for 24, 36, and 48 hours, respectively. After the culturing, the cells were washed with PBS, treated with trypsin-EDTA, and completely detached from the plate. Then, a hemocytometer was used to count the cells through trypan blue exclusion.
HaCaT, B16F10 and A375 cell lines were cultured in the same manner as described in Example 1. The cultured HaCaT cell line was plated onto a 60 mm plate at a concentration of 5×10^4 cells/well, and cultured in a CO2 incubator (37° C., 5%) for 24 hours. The cultured respective cells were divided into 4 groups. […] These groups were cultured in a CO2 incubator (37° C., 5%) for 24 hours, and then the number of cells were measured in the same manner as described in Example 2-2.

[1] = system: malignant melanoma cell line A375; assay: MTT cell viability analysis (cytotoxicity), A375; assay type: cell-based; conditions: 24 hours, FIG. 1
Experimental: Pachastrissamine's cytotoxicity on a HaCaT cell line and a malignant melanoma cell line was researched through MTT cell viability analysis.
First, each of a HaCaT cell line (German Cancer Research, obtained from prof. N. Fuseni, Germany), and two kinds of malignant melanoma cell lines, B16F10 (B16) and A375 were inoculated into a DMEM (Dulbecco's Modified Eagle's Medium) culture medium added with 10% FBS (Thermo Fisher Scientific Inc.), 100 unit/ml penicillin, and 100 μg/ml streptomycin, and then cultured in a CO2 incubator (Form a Scientific, Inc.) (37° C., 5%).
The cultured HaCaT, B16F10, and A375 cells were plated onto a 96-well plate at a concentration of 5×10^4 cells/well, and cultured in a CO2 incubator (37° C., 5%) for 24 hours. The cells in respective wells were treated with pachastrissamine and phytosphingosine at various concentrations of 0, 0.9, 1.8, 3.7, 7.5, 10 μg/ml, and cultured in a CO2 incubator (37° C., 5%) for 24 hours. After the culturing, in a state where the culture medium existed, each well was added with 5 mg/ml MTT reagent at a concentration of 20 μl/[…], and cultured in an incubator for 2 hours. After 2 hours, the culture medium was removed, and each well was added with 150 μl of DMSO (dimethyl sulfoxide). Then, a spectrophotometer was used to measure the absorbance at 540 nm, thereby analyzing the cell viability. Herein, the cell viability was represented as a relative value with respect to 100% of cell viability in a control group not treated with pachastrissamine and phytosphingosine.

HaCaT cell line = assay: TUNEL analysis of apoptosis; assay type: cell-based, human; conditions: 10 μg/ml, 24 hours, control: only a limited part, FIG. 2E
Experimental: A HaCaT cell line was cultured in the same manner as described in Example 1. The cultured HaCaT cell line was plated onto a 60 mm plate at a concentration of 5×10^4 cells/well, and cultured in a CO2 incubator (37° C., 5%) for 24 hours. The cultured cells were treated with pachastrissamine at a concentration of 10 μg/ml, cultured in a CO2 incubator (37° C., 5%) for 24 hours, and subjected to TUNEL analysis.
In order to carry out TUNEL analysis based on ApopTagFluorescein In Situ Apoptosis Detection Kit (Millipore), cells were cultured in a cover slip, and washed with PBS (pH 7.4). In order to completely fix cells, the cells were reacted in a PBS solution including 4% paraformaldehyde at room temperature for 30 minutes. Then, in order to make the cells permeable, the cells were washed with a PBS solution, and reacted in a PBS solution including 0.1% Triton X-100 at room temperature for 5 minutes. For cell marking, the cells were washed with PBS twice, and then diluted TUNEL reaction mixture was added to the cover slip. After incubating in a humidified chamber at 37° C. for 60 minutes, the cover slip was washed. The washed cover slip was reacted with a DAPI solution at room temperature for about 10 minutes, washed with PBS, mounted on a slide, sufficiently dried in a dark place, and analyzed by a fluorescent microscope. […]

HaCaT cell = assay: Phase-contrast microscope morphology analysis of surviving cells; assay type: cell-based, human; conditions: HaCaT, 24 hours
Experimental: HaCaT, B16F10 and A375 cell lines were cultured in the same manner as described in Example 1. The cultured HaCaT cell line was plated onto a 60 mm plate at a concentration of 5×10^4 cells/well, and cultured in a CO2 incubator (37° C., 5%) for 24 hours. The cultured respective cells were divided into 4 groups. One group was added with only pachastrissamine (PA) at a concentration of 10 μg/ml; another group was added with lithium chloride (apoptosis inhibiting material) (at a final concentration of 300 nM) as well as pachastrissamine at a concentration of 10 μg/ml (PA+Li); and a third group was added with only lithium chloride (Li). The last group was a negative control group (Con) and was added with nothing. These groups were cultured in a CO2 incubator (37° C., 5%) for 24 hours, and then the number of cells were measured in the same manner as described in Example 2-2.
The four groups of HaCaT cell samples were washed with PBS, and then surviving cells were subjected to morphology analysis through a phase-contrast microscope (see FIG. 2f).

`CCCCCCCCCCCCCC[C@@H]1OC[C@H](N)[C@@H]1O` [pachastrissamine] was tested, and the “degree of binding between ERK and FoxO3a” value (ERK and FoxO3a) was “significantly decreased”, the “number of cells compared to no treatment” value (B16F10 cell line; 10 μg/ml, FIGS. 2C, 2D) was “the number of cells was decreased” and the “number of cells with lithium chloride as well as pachastrissamine, compared to only pachastrissamine” value (B16F10 cell line; pachastrissamine 10 μg/ml + lithium chloride 300 nM (PA+Li)) was “the number of cells was higher”. The “cell viability (number of surviving cells) with increasing concentration” value ([1]; 0, 0.9, 1.8, 3.7, 7.5, 10 μg/ml) was “the number of surviving cells was reduced”, the “cytotoxicity compared with phytosphingosine” value [1] was “lower cytotoxicity than phytosphingosine” and the “apoptosis (TUNEL positive) among observed cell nuclei (DAPI stained)” value (HaCaT cell line) was “most of observed cell nuclei showed apoptosis”. For the same molecule, the “number of surviving cells compared to negative control group” value (HaCaT cell; 10 μg/ml, phase-contrast microscope, FIG. 2f) was “the number of surviving cells was significantly reduced” and the “cell division extent increased by lithium chloride, effect of pachastrissamine” value (HaCaT cell; pachastrissamine 10 μg/ml + lithium chloride 300 nM) was “inhibited”.
